The test deals with NCI-N87 cells. The test is described as follows: In vitro assay of warhead, cell viability by MTS. It is filed as cell-based. The note with it: Homo sapiens, 168 h, 7 days incubation, mean of three independent replicates. The protocol: Solid test material was dissolved in DMSO to a 2 mM stock solution, from which eight serial dilutions were made at a 1:10 ratio in DMSO and stored at −20° C. until use.
Adherent NCI-N87 cells were washed with D-PBS and detached with Trypsin-EDTA, cell density and viability were then determined in duplicate by Trypan blue exclusion assay using an automated cell counter (LUNA-II™). Cell suspension was diluted to 1×10^5 cells/ml in growth media (RPMI 1640 with Glutamax+10% (v/v) HyClone™ Fetal Bovine Serum) and vortexed before dispensing 2 mL per well into sterile 3 mL polypropylene plates. Warhead dilutions were then dispensed into the appropriate wells at 10 μl/well and mixed by repeat pipetting. […] At the end of the incubation period time (7 days), cell viability was measured by CellTiter 96 ™ aqueous One (MTS) assay, which was dispensed at 20 μl/well and incubated for 4 hours at 37° C., 5% CO2. Plates were then read on an EnVision™ Multi-label Plate Reader (Perkin Elmer) using absorbance at 490 nm.
Cell survival percentage was calculated from the mean absorbance of the 2 replicate wells for each sample, compared to the mean absorbance in the two control wells treated with DMSO only (100%). The IC50 was determined by fitting each data set to sigmoidal dose-response curves with a variable slope using the non-linear curve fit algorithm on the GraphPad Prism software (San Diego, Calif.). […]

pIC50: −log10 of the molar value.

Turning to `CC[C@@]1(O)C(=O)OCc2c1cc1n(c2=O)Cc2c-1nc1ccc(N)c3c1c2CCC3` [Compound I11, (S)-4-amino-9-ethyl-9-hydroxy-1,2,3,9,12,15-hexahydro-10H,13H-benzo[de]pyrano[3′,4′:6,7]indolizino[1,2-b]quinoline-10,13-dione], the pIC50 – broadly, the IC50 on a negative log10 scale, so that one unit is a factor of ten – was 9.41.

The record behind these values is patent US11446292B2, “Compounds and conjugates thereof” (MedImmune Limited, priority 2019, dated 2022).
